One data set relates to P. falciparum 3D7. The experiment in a line: Growth inhibition by SYBR Green I, chloroquine-sensitive strain. It is filed as cell-based. To be noted: Plasmodium falciparum, read-out: IC50 3D7. As to the method:
(§1) Chloroquine-sensitive (3D7) and multidrug-resistant (W2) strains were cultured in RPMI 1640 medium supplemented with 0.05 mg/mL gentamycin, 38.4 mM HEPES, 0.2% sodium bicarbonate, and 10% O^+ human serum, as previously described in a standardized protocol ([Trager and Jensen, 1976]). Then, erythrocytes were added to the culture to obtain a 5% hematocrit, and incubated at 37°C under 5% CO2 atmosphere, with daily exchange of medium. The parasitemia was monitored daily in smears stained with Giemsa. Synchronic cultures in the ring stage were obtained by two consecutive treatments at 48 h intervals with a 5% solution of D-sorbitol ([Lambros and Vanderberg, 1979]).
(§2) Parasites synchronized at the ring stage, with 0.5% parasitemia and 2% hematocrit were distributed in each well, separately. The compounds were tested in triplicates, using 12 point of concentration, prepared in two-fold dilution (40 μM – ∼0.019 μM) over 72 h. Chloroquine and pyrimethamine were used as control. Subsequently, the in vitro susceptibility of parasite to tested drugs was measured by SYBR Green according to [Hartwig et al. (2013)]. Briefly, 100 μL of lysis buffer (20 mM Tris, 5 mM EDTA, 0.008% wt/vol saponin, 0.08% vol/vol Triton X-100, and 0.4 μL/mL of SYBR Green) were added in each well of a new black 96-well plate and 100 μL of parasite culture incubated with drugs were added. After homogenization, the plates were incubated for 1 h in the dark. Fluorescence was measured at 490 nm excitation and 540 nm emission (CLARIOstar, Labtech BMG). The IC50 was calculated by plotting the Log doses vs. Inhibition (expressed as a percentage relative to the control) in Prism 6 (GraphPad Software Inc.).

For another data set, the system named is P. falciparum W2. The experiment in a line: Growth inhibition by SYBR Green I, multidrug-resistant strain. Format: cell-based. To be noted: Plasmodium falciparum, read-out: IC50 W2. The method, then:
as §1, §2

The next data set has as its target PfdUTPase. On the set-up: method as in earlier work. To be noted: pKi = -logKi of literature Ki, ref Nguyen et al., 2005, 2006, Whittingham et al., McCarthy et al., 2009, Baragaña et al., 2011, Hampton et al., Ruda et al.; cited from earlier work.
For the next data set, the system named is P. berghei ANKA. Nature of the data set: Ookinete assay (gametocyte to ookinete conversion). To be noted: Plasmodium berghei, 24 h, 21°C, ookinete formation relative to DMSO control. It is filed as cell-based. As to the method:
All animal procedures were carried out in accordance to the Brazilian College of Animal Experimentation (COBEA). This research protocol was approved by the Ethics Committee of the Institute of Biomedical Sciences – University of Sao Paulo, protocol number 132/2014-CEUA. C57BL/6 mice received an intraperitoneal injection of P. berghei ANKA infected erythrocytes, and four days after infection, a mouse with parasitemia between 4 and 6% and gametocytemia > 0.4% was selected as blood donor for cardiac puncture. Four microliters of the infected blood was dispensed in 80 μl of ookinete medium ([Blagborough et al., 2012]) at 21°C with DMSO control or with 10 μM of the tested compounds. The assay was incubated at 21°C for 24 h and 2 μl of the blood at the bottom of the tubes was spread onto a glass slide, stained with Giemsa and analyzed under a direct light microscope. The total number of formed ookinetes were counted in each slide (triplicate for each condition), and inhibition was calculated in relation to the total ookinetes formed in the control condition.

Details of data set [1]: method as in Hit2Lead library. The note with it: calculated; ref Hit2Lead library; cited from earlier work.
The next data set deals with COS7 cells. The experiment in a line: Cytotoxicity assay (MTT reduction). The note with it: selectivity index = COS7 CC50 / Pf IC50 (3D7). Format: cell-based, monkey. As to the method: (§3) Cytotoxicity assays used COS7 cells (fibroblast-like cell lines derived from monkey kidney tissue), grown in DMEM medium supplemented with 10% fetal bovine serum and 0.05 mg/mL gentamicin in atmosphere containing 5% CO2 at 37°C. Drug cytotoxicity in COS7 cells was determined in duplicate, using 12 point of concentration, prepared in two-fold dilution (200 μM – ∼ 0.097 μM). After the incubation period (72 h), the cell viability analysis were done by the MMT reduction method (3-[4,5-dimethyl-thiazol-2-yl]-2,5-diphenyltetrazolium […] ([Mosmann, 1983]). The optical density was determined at 570 nm (CLARIOstar, Labtech BMG) and the 50% cytotoxicity concentrations (CC50) was expressed as the percent viability relative to the control. The selectivity index of the compounds was determined by the following expression:
(§4) Where COS7 CC50 corresponds to the 50% cytotoxic concentration on COS7 cells and Pf IC50 is the 50 % inhibitory concentration on P. falciparum (3D7).
In general terms: Tetrazolium dyes change colour on reduction, which living cells bring about.

A short description of data set [2]: Cytotoxicity assay (MTT reduction). It is filed as cell-based, monkey. The note with it: monkey; COS7 cells, 72 h. As to the method: as §3, §4
Setting [3] is: asexual blood stage, chloroquine-sensitive 3D7, 72 h.
[4] abbreviates: asexual blood stage, multidrug-resistant W2, 72 h.

Like-named read-outs stand apart in the source and are kept apart here.

As a reminder, the IC50 is the point on the concentration scale where inhibition reaches its midpoint. Take `CCN(CC)CCCC(C)Nc1ccnc2cc(Cl)ccc12` (stereo not drawn) [Chloroquine, reference compound]: the 50% inhibitory concentration (IC50) with P. falciparum 3D7 (3D7, 72 h) worked out at 0.011 ± 0.0006 µM; in the data set with P. falciparum W2 (W2, 72 h), 0.181 ± 0.027 µM.

Consider `O=c1ccn(C2CC(O)C(CNC(c3ccccc3)(c3ccccc3)c3ccccc3)O2)c(=O)[nH]1` (stereo not drawn) [Compound 1], for which the “PfdUTPase inhibition (pKi)” value at PfdUTPase is on record as 6.70.

For the compound `O=c1ccn([C@H]2C[C@H](O)[C@@H](CNC(c3ccccc3)c3ccccc3)O2)c(=O)[nH]1` [Compound 3, 2′,5′-dideoxy-5′-[(diphenylmethyl)amino]uridine], the “PfdUTPase inhibition (pKi)” value on PfdUTPase was 6.70.

As for `O=C(O)CCCNC(=O)C(CCOC(c1ccccc1)(c1ccccc1)c1ccccc1)Cn1ccc(=O)[nH]c1=O` (stereo not drawn) [Compound 4], at PfdUTPase, the “PfdUTPase inhibition (pKi)” value is reported as 6.70.

As for `N#Cc1ccc(C(OCC2OC(n3ccc(=O)[nH]c3=O)CC2O)(c2ccccc2)c2ccccc2)cc1` (stereo not drawn) [Compound 20], the “PfdUTPase inhibition (pKi)” value at PfdUTPase is listed as 6.03.

On to `CC(C)(C)[Si](C)(C)OC1CC(n2ccc(=O)[nH]c2=O)OC1CNP(=O)(Oc1ccccc1)Oc1ccccc1` (stereo not drawn) [Compound 87], for which the “PfdUTPase inhibition (pKi)” value on PfdUTPase is 4.17.

For `CC(C)(C)[Si](C)(C)OC1CC(n2ccc(=O)[nH]c2=O)OC1CO` (stereo not drawn) [Compound 127], the “PfdUTPase inhibition (pKi)” value at PfdUTPase is on record as 3.19.

The inhibition is how much of the control response was suppressed. What is called CC50 is the concentration at which the toxic effect on the cells reaches its halfway point. High values mean lower toxicity to the cells, low ones greater toxicity to the cells. With `COc1ccc(C(OCC2OC3C(Oc4nc(=O)ccn43)C2O)(c2ccccc2)c2ccc(OC)cc2)cc1` (stereo not drawn) [LabMol-144], the IC50 in the data set with P. falciparum 3D7 (setting [3]) worked out at 7.1 ± 2.53 µM; in the data set with P. falciparum W2 (setting [4]), 4.23 ± 1.18 µM. Further, in the data set on P. berghei ANKA, testing at 10 µM gave an inhibition of 44.6 ± 2.4%. Further, in data set [1], the logS is listed as −5.36. Moreover, the SI with COS7 cells is listed as 11.7. The same compound returned a CC50 at 72 h in data set [2] of 81.7 ± 25.7 µM.

`COc1ccc2c(c1)c(/C=C/c1nc3ccccc3c(=O)n1-c1ccccc1)c(C)n2C` [LabMol-145]: the results for the IC50 with P. falciparum 3D7 (setting [3]) and in the data set on P. falciparum W2 (setting [4]) were 17.1 ± 16.2 µM and 15.3 ± 3.29 µM, respectively. Also, 10 µM produced 13.2 ± 24% inhibition in the data set with P. berghei ANKA. Moreover, the logS in data set [1] was −6.74. The SI in the data set on COS7 cells amounted to 2.7. In addition, it took 46 ± 13.4 µM to reach half-maximal cytotoxicity in data set [2] (CC50 at 72 h).

Regarding `COc1ccc(C(OCC2OC(n3ccc(=O)[nH]c3=O)C(O)C2O)(c2ccccc2)c2ccccc2)cc1` (stereo not drawn) [LabMol-146], the IC50 worked out at 6.1 ± 1.95 µM in the data set with P. falciparum 3D7 (setting [3]) and 3.2 ± 2.12 µM in the data set on P. falciparum W2 (setting [4]). For the same compound, in the data set with P. berghei ANKA, the inhibition at 10 µM amounted to 7.3 ± 7.3%. Besides, the logS in data set [1] is −5.04. For the same compound, the midpoint of cytotoxicity in data set [2], the CC50 at 72 h, lay at 52 ± 16.4 µM.

For the compound `CCc1nc(N)nc(N)c1-c1ccc(Cl)cc1` [Pyrimethamine, reference compound], the results for the IC50 with P. falciparum 3D7 (setting [3]) and in the data set on P. falciparum W2 (setting [4]) were 0.044 ± 0.009 µM and 14.7 ± 3.94 µM, respectively.

(Values after paper PMC5845645, “QSAR-Driven Design and Discovery of Novel Compounds With Antiplasmodial and Transmission Blocking Activities” (Frontiers in Pharmacology, 2018).)
